Data: publication PMC8113468, “Sugar transporters enable a leaf beetle to accumulate plant defense compounds” (Nature Communications, 2021)

Assays:
Format in all cases: cell-based
PaGTR3 = target: T1, PaGTR3 (Phyllotreta armoraciae, UniProt A0A858Z6Y2); experiment: uptake into transfected High Five insect cells, LC-MS/MS; details: equimolar mixture of seven glucosinolates, 200 µM, PBS pH 5.5, 1 h, 27 °C
T1 construct: gene GTR3; full-length ORF in pIEx-4, C-terminal 6xHis tag, expressed in High Five insect cells
T1 sequence (A0A858Z6Y2 1-478): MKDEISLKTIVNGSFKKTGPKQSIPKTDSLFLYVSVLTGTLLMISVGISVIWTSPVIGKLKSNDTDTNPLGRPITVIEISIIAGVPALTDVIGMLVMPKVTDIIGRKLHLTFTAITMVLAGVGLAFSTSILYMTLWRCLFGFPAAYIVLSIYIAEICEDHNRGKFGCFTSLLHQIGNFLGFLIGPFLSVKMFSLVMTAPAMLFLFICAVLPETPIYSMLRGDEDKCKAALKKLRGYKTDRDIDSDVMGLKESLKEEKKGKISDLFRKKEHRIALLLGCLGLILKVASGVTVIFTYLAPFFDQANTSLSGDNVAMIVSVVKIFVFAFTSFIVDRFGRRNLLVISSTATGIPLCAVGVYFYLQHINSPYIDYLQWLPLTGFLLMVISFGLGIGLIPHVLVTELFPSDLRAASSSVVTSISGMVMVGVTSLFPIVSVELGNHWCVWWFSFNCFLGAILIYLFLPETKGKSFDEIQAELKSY

PaGTR2 = target: T2, PaGTR2 (Phyllotreta armoraciae, UniProt A0A858Z6M7); experiment: as above; details: equimolar mixture of seven glucosinolates, 200 µM, PBS pH 5.5, 1 h, 27 °C
T2 construct: gene GTR2; full-length ORF in pIEx-4, C-terminal 6xHis tag, expressed in High Five insect cells
T2 sequence (A0A858Z6M7 1-504): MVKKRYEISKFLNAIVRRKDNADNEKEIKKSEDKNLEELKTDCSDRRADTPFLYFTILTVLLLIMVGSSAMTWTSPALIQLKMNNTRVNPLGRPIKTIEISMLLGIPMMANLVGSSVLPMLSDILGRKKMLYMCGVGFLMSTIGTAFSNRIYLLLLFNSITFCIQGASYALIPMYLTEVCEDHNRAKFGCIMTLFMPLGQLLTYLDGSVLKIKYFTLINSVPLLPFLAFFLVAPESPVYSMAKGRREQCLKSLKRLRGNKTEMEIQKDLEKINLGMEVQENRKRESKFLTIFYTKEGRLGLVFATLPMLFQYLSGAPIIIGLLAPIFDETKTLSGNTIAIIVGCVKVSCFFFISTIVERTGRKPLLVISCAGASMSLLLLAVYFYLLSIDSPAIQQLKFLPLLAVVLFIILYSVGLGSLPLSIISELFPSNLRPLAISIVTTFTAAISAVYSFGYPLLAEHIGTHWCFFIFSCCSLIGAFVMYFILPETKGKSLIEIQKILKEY

PaGTR1 = target: T3, PaGTR1 (Phyllotreta armoraciae, UniProt A0A858Z6R5); experiment: uptake into PaGTR1-expressing Xenopus oocytes, LC-MS/MS; details: Kulori buffer with MES pH 6.0, 10 min, room temperature; proton-dependent import; read-out: apparent Km
T3 construct: gene GTR1; full-length ORF without stop codon in pNB1u, C-terminal HA tag, cRNA expressed in Xenopus laevis oocytes
T3 sequence (A0A858Z6R5 entry or part of it): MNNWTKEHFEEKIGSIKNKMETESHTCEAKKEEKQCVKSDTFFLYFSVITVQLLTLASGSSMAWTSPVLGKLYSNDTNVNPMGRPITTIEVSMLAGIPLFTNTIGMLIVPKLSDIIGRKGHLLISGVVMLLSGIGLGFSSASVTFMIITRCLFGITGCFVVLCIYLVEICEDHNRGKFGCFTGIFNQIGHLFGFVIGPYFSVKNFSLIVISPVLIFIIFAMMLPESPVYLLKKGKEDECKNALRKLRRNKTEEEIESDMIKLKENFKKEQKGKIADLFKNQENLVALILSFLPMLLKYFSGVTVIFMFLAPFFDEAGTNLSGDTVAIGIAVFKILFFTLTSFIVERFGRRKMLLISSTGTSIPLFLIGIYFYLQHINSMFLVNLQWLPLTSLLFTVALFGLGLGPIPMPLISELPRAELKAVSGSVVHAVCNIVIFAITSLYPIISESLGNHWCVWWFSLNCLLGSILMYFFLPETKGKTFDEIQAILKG

O=S(=O)(O)O/N=C(/Cc1c[nH]c2ccccc12)S[C@@H]1O[C@H](CO)[C@@H](O)[C@H](O)[C@H]1O [I3M glucosinolate]
uptake into transfected High Five insect cells, LC-MS/MS (PaGTR3): PaGTR2 and PaGTR3 expression was analyzed because the recombinant transporters also used I3M glucosinolate | uptake into transfected High Five insect cells, LC-MS/MS (PaGTR2): PaGTR2 and PaGTR3 expression was analyzed because the recombinant transporters also used I3M glucosinolate | Km (PaGTR1): 50.6 ± 4.1 µM
